# Reference: patent publication US10428014B2, “Base generator, base-reactive composition containing said base generator, and base generation method” (FUJIFILM Wako Pure Chemical Corporation, priority 2013, dated 2019)
# Assays:
# [1] = Heat resistance test (TG-DTA, initiation temperature of 5% weight decrease); type: physicochemical; settings: 10 mg, 30° C. to 500° C., 10° C./min
# [2] = Exposure curing test using bisphenol A-type diglycidyl ether; settings: 10 mg compound, 100 mg jER 828, 50 mg KarenzMT PE1
Decomposition initiation temperature [1],Dissolution into the mixed solution of the bisphenol A-type diglycidyl ether oligomer and pentaerythritol tetrakis(3-mercaptobutyrate) [2],Molecule
199 °C,,"1,2-dicyclohexyl-4,4,5,5-tetramethylbiguanidium 2-(9-oxoxanthene-2-yl)propionate [formula (4)]"
205 °C,,"1,2-dicyclohexyl-4,4,5,5-tetramethylbiguanidium 8(7H)-ethylidene-4-methoxy-5,6-dihydronaphthalene-1-carboxylate [formula (6)]"
200 °C,,"1,2-diisopropyl-4,4,5,5-tetramethylbiguanidium 2-(9-oxoxanthene-2-yl)propionate [formula (7)]"
204 °C,,"1,2-diisopropyl-4,4,5,5-tetramethylbiguanidium 8(7H)-ethylidene-4-methoxy-5,6-dihydronaphthalene-1-carboxylate [formula (5)]"
161 °C,did not dissolve,"CC(C(=O)O)c1cccc(C(=O)c2ccccc2)c1 (stereo not shown) [formula (101), guanidium 2-(3-benzoylphenyl)propionate, reference compound]"

Molecule,Decomposition initiation temperature [1],Dissolution into the mixed solution of the bisphenol A-type diglycidyl ether oligomer and pentaerythritol tetrakis(3-mercaptobutyrate) [2]
"1,2-diisopropyl-4,4,5,5-tetramethylbiguanidium N-phthaloylglycine [formula (8)]",206 °C,
